Columns and labels:
Candida albicans = assay: Anti-microbial screening, agar dilution, Candida albicans; format: cell-based; details: after 10, 20, 40 and 60 minutes at all dilutions 1:100, 1:200, 1:400, 1:800
Protocol: (§1) The antibacterial properties of the present compound were studied by the method of agar dilution. Test solutions of the compound were prepared in a concentration of 1% using dimethylformamide as a solvent then they are diluted in physiological solution to obtain the final experimental dilutions 1:100, 1:200, 1:400, and 1:800. The effect of these substances were compared with furacillin in a controllable study. The testing microbes used were gram positive bacteria St. Aereus, gram negative bacteria E. Coli, Ps. aeruginosa and Candida albicans fungi were taken. The experiments used for this survey were meat-pentonlu agar (EPA) for cultivation of bacteria and Saburo environment for fungi. Each experiment used 1 ml of test solution on each plate 500 min. Add 2 drops of emulsified with microbes feel. All experimental samples were taken from the agar after 10, 20, 40, and 60 minutes in the environment on the basis of Patrk planted. Bacteria were cultivated at a temperature of 37° C. for 1 day and the mushroom was kept in a thermostat for […] at a temperature of 28° C. Then results were checked.

St. Aereus = assay: Anti-microbial screening, agar dilution, St. Aereus; format: cell-based, Staphylococcus aureus; details: after 10, 20, 40 and 60 minutes at all dilutions 1:100, 1:200, 1:400, 1:800
Protocol: as §1

E. Coli = assay: Anti-microbial screening, agar dilution, E. Coli; format: cell-based, Escherichia coli; details: after 10, 20, 40 and 60 minutes at all dilutions 1:100, 1:200, 1:400, 1:800
Protocol: as §1

Ps. aeruginosa = assay: Anti-microbial screening, agar dilution, Ps. aeruginosa; format: cell-based, Pseudomonas aeruginosa; details: after 10, 20, 40 and 60 minutes at all dilutions 1:100, 1:200, 1:400, 1:800
Protocol: as §1

melting point: 117 to 118 °C
Structure (SMILES): CC(O)Cn1c(-c2ccncc2O)nc(-c2ccccc2)c1-c1ccccc1 (centres unmarked) [4-(1-(2-Hydroxypropyl)-4,5-diphenyl-1H-imidazol-2-yl)pyridin-3-ol]
inhibition activity (in words) (Candida albicans): highest inhibition activity
inhibition activity (in words) (St. Aereus): highest inhibition activity
inhibition activity (in words) (E. Coli): highest inhibition activity
inhibition activity (in words) (Ps. aeruginosa): highest inhibition activity

Source: US11970475B1, “4-(1-(2-Hydroxypropyl)-4,5-diphenyl-1H-imidazol-2-yl)pyridin-3-ol as an antimicrobial compound” (KING FAISAL UNIVERSITY, priority 2023, dated 2024)
